Measurements published in ChEMBL document CHEMBL4219130, “Two new lathyrane-type diterpenoid glycosides with IL-6 production inhibitory activity from the roots of Euphorbia kansui” (Bioorg Med Chem Lett, 2018).
Activity calls are given as the source filed them. The rule behind the calls is not given here.

Columns and labels:
Type in all cases: functional, cell-based
HMC1 [1] = experiment: Antiinflammatory activity in human HMC1 cells assessed as reduction in PMA/ionophore A23187-induced TNFalpha mRNA expression at 0.8 to 20 uM pretreated for 30 mins followed by PMA/ionophore challenge measured after 24 hrs by real-time PCR analysis
HMC1 [2] = experiment: Antiinflammatory activity in human HMC1 cells assessed as reduction in PMA/ionophore A23187-induced IL-6 production
HMC1 [3] = experiment: Antiinflammatory activity in human HMC1 cells assessed as reduction in PMA/ionophore A23187-induced IL-6 mRNA expression at 0.8 to 20 uM pretreated for 30 mins followed by PMA/ionophore challenge measured after 24 hrs by real-time PCR analysis
HMC1 [4] = experiment: Antiinflammatory activity in human HMC1 cells assessed as reduction in PMA/ionophore A23187-induced IL-1beta mRNA expression at 0.8 to 20 uM pretreated for 30 mins followed by PMA/ionophore challenge measured after 24 hrs by real-time PCR analysis

Row | IC50 (HMC1 [2]) [nM] | SMILES | Activity (HMC1 [1]) | Activity (HMC1 [3]) | Activity (HMC1 [4])
1 | 2960 | C/C1=C\C2=C(C[C@H](C)C2=O)[C@@H](O[C@@H]2O[C@H](CO)[C@@H](O)[C@H](O)[C@H]2O)[C@H](C)C[C@@H]2[C@H](C[C@H]1O)[C@@]2(C)CO | Active | Active | Active
2 | 1940 | C/C1=C\C2=C(C[C@H](C)C2=O)[C@@H](O)[C@H](C)C[C@@H]2[C@H](C[C@H]1O)[C@@]2(C)CO[C@@H]1O[C@H](CO)[C@@H](O)[C@H](O)[C@H]1O | – | – | –
